Columns and labels:
Experiment in all cases: relative viability (nuclei count vs DMSO), 5 days (fraction); higher = more cells survive
[1] = compound: CC1=C(C(=NN1)C)CC2=C(C3=C(S2)N(C(=O)N(C3=O)C)CC(C)C)C(=O)N4C[C@@H](CO4)O + CC1(C)CCC(c2ccc(Cl)cc2)=C(CN2CCN(c3ccc(C(=O)NS(=O)(=O)c4ccc(N[C@H](CCN5CCOCC5)CSc5ccccc5)c(S(=O)(=O)C(F)(F)F)c4)cc3)CC2)C1 [Navitoclax] (partner 0.5 µM)
Method in brief: (§1)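 Relative viability divides the nuclei count in treated wells by that in vehicle wells. Lung cancer cell lines were seeded in 1536-well plates, dosed by pin tool the next day, and fixed and stained after 5 days in one step with final 0.05% Triton X-100, 1% formaldehyde and 1 ug/ml Hoechst. Dosing was a single drug or a fixed anchor-drug dose plus five library-drug doses (not always all listed) in √10 steps, and values are medians of duplicate plates imaged at 4×.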

[2] = compound: CC1=C(C(=NN1)C)CC2=C(C3=C(S2)N(C(=O)N(C3=O)C)CC(C)C)C(=O)N4C[C@@H](CO4)O + CS(=O)(=O)CCNCc1ccc(-c2ccc3ncnc(Nc4ccc(OCc5cccc(F)c5)c(Cl)c4)c3c2)o1 [Lapatinib] (partner 2 µM)
Method in brief: as §1

IDH-C35 + Luminespib = compound: Cc1ccccc1C(C(=O)NC1CCCCC1)N(C(=O)Cn1ccnc1C)c1cccc(F)c1 [IDH-C35] + CCNC(=O)c1noc(-c2cc(C(C)C)c(O)cc2O)c1-c1ccc(CN2CCOCC2)cc1 [Luminespib] (partner 0.01 µM)
Method in brief: as §1

IDH-C35 + Dasatinib = compound: Cc1ccccc1C(C(=O)NC1CCCCC1)N(C(=O)Cn1ccnc1C)c1cccc(F)c1 [IDH-C35] + Cc1nc(Nc2ncc(C(=O)Nc3c(C)cccc3Cl)s2)cc(N2CCN(CCO)CC2)n1 [Dasatinib] (partner 0.075 µM)
Method in brief: as §1

Cell Line | relative viability ([1]; first compound 0.0025 µM) | relative viability ([1]; first compound 0.007906 µM) | relative viability ([1]; first compound 0.025 µM) | relative viability ([1]; first compound 0.07906 µM) | relative viability ([1]; first compound 0.25 µM) | relative viability ([2]; first compound 0.0025 µM) | relative viability ([2]; first compound 0.007906 µM) | relative viability ([2]; first compound 0.07906 µM) | relative viability ([2]; first compound 0.25 µM) | relative viability (IDH-C35 + Luminespib; first compound 0.08 µM) | relative viability (IDH-C35 + Luminespib; first compound 0.253 µM) | relative viability (IDH-C35 + Luminespib; first compound 0.8 µM) | relative viability (IDH-C35 + Luminespib; first compound 2.53 µM) | relative viability (IDH-C35 + Luminespib; first compound 8 µM) | relative viability (IDH-C35 + Dasatinib; first compound 0.08 µM) | relative viability (IDH-C35 + Dasatinib; first compound 0.253 µM) | relative viability (IDH-C35 + Dasatinib; first compound 0.8 µM) | relative viability (IDH-C35 + Dasatinib; first compound 2.53 µM) | relative viability (IDH-C35 + Dasatinib; first compound 8 µM) | relative viability ([2]; first compound 0.025 µM)
CAL-12T | 1.27 | 1.39 | 1.03 | 1.37 | 1.33 | 0.822 | 0.82 | 0.837 | 0.766 | 0.498 | 0.314 | 0.36 | 0.188 | 0.363 | 0.39 | 0.613 | 0.411 | 0.496 | 0.396 | –
EKVX | 1 | 1.04 | 0.988 | 0.907 | 0.933 | 0.251 | 0.198 | 0.524 | 0.191 | 0.93 | 0.908 | 0.822 | 0.842 | 0.845 | 0.568 | 0.53 | 0.57 | 0.494 | 0.61 | 0.203
NCI-H1651 | 1.11 | 1.06 | 1.01 | 0.912 | 1.05 | 0.922 | 0.971 | 0.766 | 0.833 | 0.861 | 0.6 | 0.67 | 0.797 | 0.716 | 0.416 | 0.398 | 0.426 | 0.404 | 0.382 | 0.771
NCI-H1944 | 1.03 | 1.04 | 1.08 | 1.08 | 1.02 | 0.877 | 0.94 | 0.822 | 0.92 | 0.79 | 0.715 | 0.656 | 0.681 | 0.763 | 0.233 | 0.228 | 0.211 | 0.228 | 0.211 | 0.951
SW 1573 | 0.978 | 1.1 | 0.927 | 0.929 | 1.12 | 1.09 | 1.02 | 1.04 | 1.19 | 0.136 | 0.218 | 0.257 | 0.442 | 0.248 | 0.571 | 0.545 | 0.545 | 0.549 | 0.38 | 1.05
A-427 | 1.01 | 0.948 | 0.889 | 0.886 | 1.16 | 1 | 1.09 | 1.02 | 1.08 | 0.914 | 0.892 | 0.785 | 0.87 | 0.852 | 0.738 | 0.636 | 0.685 | 0.702 | 0.658 | 0.679
NCI-H2347 | 0.86 | 0.691 | 0.828 | 0.69 | 0.771 | 0.993 | 0.956 | 0.964 | 1.09 | 0.653 | 0.575 | 0.48 | 0.508 | 0.369 | 0.337 | 0.3 | 0.243 | 0.343 | 0.282 | 0.86
NCI-H1355 | 0.955 | 0.96 | 1.02 | 0.853 | 0.894 | 1.08 | 1.11 | 0.945 | 0.943 | 0.703 | 0.72 | 0.693 | 0.722 | 0.72 | 0.76 | 0.727 | 0.667 | 0.651 | 0.742 | 0.918

— the supplement of paper PMC10307832
